According to PubChem BioAssay (NCI):
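Dose response: 5 concentrations. Exposure: 48 h. Format: 96-well plates. Endpoint: linear interpolation; highest concentration if not reached. Abbreviation: GI50, concentration required for 50% inhibition of growth. Definition used: TGI = concentration required for complete inhibition of growth.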

How the values were obtained:
Experiment in all cases: DTP human tumour cell line panel, 48 h
HS 578T breast = system: HS 578T breast
NCI-H522 lung = system: NCI-H522 lung
U251 CNS = system: U251 CNS
OVCAR-8 ovarian = system: OVCAR-8 ovarian
T-47D breast = system: T-47D breast
A549 NSCLC = system: A549 NSCLC
HT29 colon = system: HT29 colon
MDA-MB-435 = system: MDA-MB-435
DU-145 prostate = system: DU-145 prostate
COLO 205 colon = system: COLO 205 colon

| SMILES | GI50 (HS 578T breast) [µM] | TGI (HS 578T breast) [µM] | GI50 (NCI-H522 lung) [µM] | TGI (NCI-H522 lung) [µM] | GI50 (U251 CNS) [µM] | TGI (U251 CNS) [µM] | GI50 (OVCAR-8 ovarian) [µM] | TGI (OVCAR-8 ovarian) [µM] | GI50 (T-47D breast) [µM] | TGI (T-47D breast) [µM] | GI50 (A549 NSCLC) [µM] | TGI (A549 NSCLC) [µM] | GI50 (HT29 colon) [µM] | TGI (HT29 colon) [µM] | GI50 (MDA-MB-435) [µM] | TGI (MDA-MB-435) [µM] | GI50 (DU-145 prostate) [µM] | TGI (DU-145 prostate) [µM] | GI50 (COLO 205 colon) [µM] | TGI (COLO 205 colon) [µM] |
| --- | --- | --- | --- | --- | --- | --- | --- | --- | --- | --- | --- | --- | --- | --- | --- | --- | --- | --- | --- | --- |
| NS(=O)(=O)c1ccc(N=Nc2c(O)[nH]c3cccc(CCc4ccncc4)c23)cc1 | > 25 | > 25 | > 25 | > 25 | > 25 | > 25 | > 25 | > 25 | > 25 | > 25 | > 25 | > 25 | > 25 | > 25 | > 25 | > 25 | > 25 | > 25 | > 25 | > 25 |
| Cc1cc(S(=O)(=O)Nc2n[nH]c(-c3ccc(Cl)cc3)c2C#N)c(S)cc1Cl | 35.8 | > 100 | > 100 | > 100 | > 100 | > 100 | > 100 | > 100 | > 100 | > 100 | > 100 | > 100 | > 100 | > 100 | > 100 | > 100 | > 100 | > 100 | > 100 | > 100 |
| OC1CCC(COC(c2ccccc2)(c2ccccc2)c2ccccc2)O1 (stereo not given) |  | 35.7 |  | 31.8 |  | 36 |  | 35.8 |  | 38.2 |  | 37 |  | 33.7 |  | 39.9 |  | 38.3 |  | 30.8 |
| CCOC(=O)Nc1nc(-c2ccccc2)c(C)s1 |  | > 100 |  | > 100 |  | > 100 |  | > 100 |  | > 100 |  | > 100 |  | > 100 |  | > 100 |  | > 100 |  | > 100 |
| Cc1cccc2c1NC(=O)[C@@H](NC(=O)[C@H](CCC(F)(F)F)[C@H](CCC(F)(F)F)C(N)=O)N=C2c1cccc(F)c1 | 20.4 | 64 | 16.6 | 53.7 | 20.2 | 59.2 | 30.5 | > 100 | 34.5 | > 100 | 36.6 | > 100 | > 100 | > 100 | > 100 | > 100 | 71.4 | > 100 | > 100 | > 100 |
| CCOC(=O)Nc1ccc2c3c(cccc13)-c1ccccc1-2 | 3.91 | > 100 | > 100 | > 100 | 5.52 | > 100 | > 100 | > 100 | 2.57 | > 100 | 6.03 | > 100 | 3.67 | > 100 | 0.862 | 3.54 | 7.56 | > 100 | 4.25 | > 100 |
| CC12OC(C(=O)C13CC3)C1C(=O)c3cccc(O)c3C(=O)C12 (stereo not given) | 25.8 | 82.1 | 8.84 | > 76.9 | 8.29 | > 58.8 | 8.12 | > 38.5 | 23.3 | > 70.6 | 28.7 | > 100 | 10.6 | > 100 | 16.9 | > 57.7 | 15.3 | 56.2 | 15.5 | > 96.2 |
